Test results taken from paper doi:10.1101/2025.09.23.678079v1 (biorxiv, 2025).
pIC50: −log10 of the molar value. In brackets after ≈: the same amount, converted by molar mass. Blank lines part the entries; values can stand above or below the molecule they belong to.

Legend:
HPK1 = HPK1 (Homo sapiens, UniProt Q92918); experiment: HTRF enzymatic assay; type: biochemical
in vitro [1] = experiment: in vitro; parameters: species or system CT26; conditions: human, hepg2 cells
in vitro [2] = experiment: in vitro; parameters: species or system HepG2; conditions: mouse, ct26 cells
human primary T cells = experiment: cells; conditions: T-cell, read-out: IL-2 increase EC50 (nM)
physchem = conditions: aqueous buffer, pH 7.4, aqueous buffer
in vitro [3] = conditions: human, hepatocytes
in vitro [4] = conditions: human, Caco-2
in vitro [5] = conditions: mouse, hepatocytes
in vitro [6] = conditions: rat, hepatocytes
in vitro [7] = conditions: dog, hepatocytes
in vitro [8] = conditions: human, plasma
in vitro [9] = conditions: mouse, plasma
in vitro [10] = conditions: rat, plasma
in vitro [11] = conditions: dog, plasma
CYP2C9 = CYP2C9 (Homo sapiens, UniProt P11712); experiment: in vitro
CYP2D6 = CYP2D6 (Homo sapiens, UniProt P10635); experiment: in vitro
CYP2C19 = CYP2C19 (Homo sapiens, UniProt P33261); experiment: in vitro
CYP1A2 = molecular target: T1, CYP1A2 (Homo sapiens, UniProt P05177); experiment: in vitro
T1 sequence (P05177 1-516): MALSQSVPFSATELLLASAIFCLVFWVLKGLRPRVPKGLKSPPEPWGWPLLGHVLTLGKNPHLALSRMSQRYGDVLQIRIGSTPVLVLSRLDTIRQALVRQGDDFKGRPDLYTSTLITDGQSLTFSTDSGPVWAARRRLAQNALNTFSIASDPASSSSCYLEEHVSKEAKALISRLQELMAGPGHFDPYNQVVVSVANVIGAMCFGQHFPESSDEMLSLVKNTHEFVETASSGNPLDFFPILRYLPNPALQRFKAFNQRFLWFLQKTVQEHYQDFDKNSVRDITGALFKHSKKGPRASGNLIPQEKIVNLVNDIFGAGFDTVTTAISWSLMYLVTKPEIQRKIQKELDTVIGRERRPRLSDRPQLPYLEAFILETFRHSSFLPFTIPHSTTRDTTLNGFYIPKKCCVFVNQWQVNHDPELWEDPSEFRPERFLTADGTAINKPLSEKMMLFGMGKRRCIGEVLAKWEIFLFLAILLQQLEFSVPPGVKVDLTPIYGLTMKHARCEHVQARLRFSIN

PXR = molecular target: T2, PXR (Homo sapiens, UniProt O75469); experiment: in vitro
T2 sequence (O75469 1-434): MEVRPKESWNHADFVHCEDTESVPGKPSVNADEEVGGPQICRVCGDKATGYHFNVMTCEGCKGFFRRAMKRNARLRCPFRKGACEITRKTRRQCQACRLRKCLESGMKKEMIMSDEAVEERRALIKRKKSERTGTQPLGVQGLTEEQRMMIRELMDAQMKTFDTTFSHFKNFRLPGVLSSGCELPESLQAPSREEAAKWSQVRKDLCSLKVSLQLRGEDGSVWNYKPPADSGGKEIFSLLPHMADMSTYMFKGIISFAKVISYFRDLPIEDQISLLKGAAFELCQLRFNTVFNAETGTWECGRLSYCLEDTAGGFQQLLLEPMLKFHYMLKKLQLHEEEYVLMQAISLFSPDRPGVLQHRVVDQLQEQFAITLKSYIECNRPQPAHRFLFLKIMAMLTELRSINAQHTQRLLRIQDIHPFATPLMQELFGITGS

hERG [12] = molecular target: T3, hERG (Homo sapiens, UniProt Q12809, species not given); experiment: in vitro
hERG [13] = molecular target: T3, hERG; experiment: in vitro; remark: listed apart in the source

Chain of HPK1 (Q92918 whole entry): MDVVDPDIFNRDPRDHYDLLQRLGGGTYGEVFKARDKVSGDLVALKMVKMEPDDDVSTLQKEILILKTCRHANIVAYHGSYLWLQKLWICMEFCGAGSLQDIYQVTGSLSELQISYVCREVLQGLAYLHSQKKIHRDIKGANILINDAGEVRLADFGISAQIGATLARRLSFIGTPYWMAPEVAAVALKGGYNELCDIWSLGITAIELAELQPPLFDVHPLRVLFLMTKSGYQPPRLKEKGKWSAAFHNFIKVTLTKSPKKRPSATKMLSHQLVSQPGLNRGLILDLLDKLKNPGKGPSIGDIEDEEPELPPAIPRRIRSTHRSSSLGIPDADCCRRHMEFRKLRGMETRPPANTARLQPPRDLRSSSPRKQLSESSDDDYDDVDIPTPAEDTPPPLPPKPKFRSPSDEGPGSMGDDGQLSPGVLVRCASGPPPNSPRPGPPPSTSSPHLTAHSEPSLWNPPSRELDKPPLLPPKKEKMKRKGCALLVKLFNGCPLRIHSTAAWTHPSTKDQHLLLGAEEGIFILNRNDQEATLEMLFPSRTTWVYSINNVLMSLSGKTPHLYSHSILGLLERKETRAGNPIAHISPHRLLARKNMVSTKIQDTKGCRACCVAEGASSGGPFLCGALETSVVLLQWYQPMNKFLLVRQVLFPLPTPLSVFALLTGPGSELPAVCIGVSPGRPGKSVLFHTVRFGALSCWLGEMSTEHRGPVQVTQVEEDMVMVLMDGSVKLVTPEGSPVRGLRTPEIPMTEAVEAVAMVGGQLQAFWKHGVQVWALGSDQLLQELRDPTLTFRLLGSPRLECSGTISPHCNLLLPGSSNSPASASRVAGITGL
T3 sequence (Q12809 whole entry): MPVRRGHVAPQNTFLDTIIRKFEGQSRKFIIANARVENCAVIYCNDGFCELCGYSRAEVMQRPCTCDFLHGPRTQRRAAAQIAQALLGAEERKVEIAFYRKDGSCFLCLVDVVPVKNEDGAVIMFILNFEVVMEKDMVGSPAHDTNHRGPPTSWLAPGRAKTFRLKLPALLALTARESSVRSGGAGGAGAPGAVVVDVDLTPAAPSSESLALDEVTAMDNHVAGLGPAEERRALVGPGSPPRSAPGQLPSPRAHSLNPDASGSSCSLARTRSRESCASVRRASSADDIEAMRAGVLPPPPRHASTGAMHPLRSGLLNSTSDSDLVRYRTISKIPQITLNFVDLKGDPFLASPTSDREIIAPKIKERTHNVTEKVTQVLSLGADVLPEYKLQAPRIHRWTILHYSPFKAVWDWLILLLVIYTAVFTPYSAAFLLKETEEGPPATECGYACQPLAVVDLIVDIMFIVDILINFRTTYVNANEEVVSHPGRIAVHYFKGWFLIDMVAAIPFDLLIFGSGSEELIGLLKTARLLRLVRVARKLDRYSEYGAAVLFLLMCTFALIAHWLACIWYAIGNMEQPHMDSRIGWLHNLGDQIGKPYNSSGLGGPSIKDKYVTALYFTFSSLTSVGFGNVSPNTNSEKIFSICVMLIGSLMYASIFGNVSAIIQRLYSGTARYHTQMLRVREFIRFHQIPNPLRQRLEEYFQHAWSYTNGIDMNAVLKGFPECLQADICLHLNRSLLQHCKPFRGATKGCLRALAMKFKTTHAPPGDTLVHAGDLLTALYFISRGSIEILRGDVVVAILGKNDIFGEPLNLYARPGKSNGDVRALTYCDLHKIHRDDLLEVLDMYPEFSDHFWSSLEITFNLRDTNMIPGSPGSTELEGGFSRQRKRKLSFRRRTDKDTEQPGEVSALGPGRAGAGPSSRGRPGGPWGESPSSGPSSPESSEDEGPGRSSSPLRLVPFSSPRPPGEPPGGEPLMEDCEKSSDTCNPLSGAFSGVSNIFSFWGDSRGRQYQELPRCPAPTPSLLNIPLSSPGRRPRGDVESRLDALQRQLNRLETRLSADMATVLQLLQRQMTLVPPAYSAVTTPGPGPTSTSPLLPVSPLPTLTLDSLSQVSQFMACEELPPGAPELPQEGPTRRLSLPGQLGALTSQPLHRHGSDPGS
Chain of CYP2C19 (P33261 whole entry): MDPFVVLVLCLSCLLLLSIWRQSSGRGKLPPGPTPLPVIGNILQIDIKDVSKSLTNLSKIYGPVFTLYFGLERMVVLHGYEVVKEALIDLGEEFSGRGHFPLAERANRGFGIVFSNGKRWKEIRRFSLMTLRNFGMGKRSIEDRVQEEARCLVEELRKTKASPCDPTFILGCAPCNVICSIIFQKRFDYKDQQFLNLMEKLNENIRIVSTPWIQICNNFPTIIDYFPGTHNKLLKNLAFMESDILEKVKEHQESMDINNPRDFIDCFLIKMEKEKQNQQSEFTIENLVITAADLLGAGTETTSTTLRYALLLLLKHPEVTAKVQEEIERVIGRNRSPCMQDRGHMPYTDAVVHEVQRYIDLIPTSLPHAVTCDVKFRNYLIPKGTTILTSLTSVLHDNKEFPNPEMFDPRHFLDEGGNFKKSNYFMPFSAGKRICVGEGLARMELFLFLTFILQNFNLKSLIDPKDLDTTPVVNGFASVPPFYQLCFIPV
Chain of CYP2C9 (P11712 whole entry): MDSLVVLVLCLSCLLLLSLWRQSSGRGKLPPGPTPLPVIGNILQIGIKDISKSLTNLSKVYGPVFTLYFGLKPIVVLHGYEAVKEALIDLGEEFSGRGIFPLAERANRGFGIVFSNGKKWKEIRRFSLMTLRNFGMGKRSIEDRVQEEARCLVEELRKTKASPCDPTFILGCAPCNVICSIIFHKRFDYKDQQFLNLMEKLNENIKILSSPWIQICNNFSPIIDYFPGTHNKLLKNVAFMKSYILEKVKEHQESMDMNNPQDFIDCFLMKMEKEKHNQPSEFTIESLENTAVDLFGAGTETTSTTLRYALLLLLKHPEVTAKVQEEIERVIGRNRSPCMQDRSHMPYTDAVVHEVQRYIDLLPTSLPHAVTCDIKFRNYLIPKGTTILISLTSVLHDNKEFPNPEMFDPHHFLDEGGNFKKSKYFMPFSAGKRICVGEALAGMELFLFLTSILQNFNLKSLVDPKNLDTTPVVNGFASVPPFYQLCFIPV
Chain of CYP2D6 (P10635 whole entry): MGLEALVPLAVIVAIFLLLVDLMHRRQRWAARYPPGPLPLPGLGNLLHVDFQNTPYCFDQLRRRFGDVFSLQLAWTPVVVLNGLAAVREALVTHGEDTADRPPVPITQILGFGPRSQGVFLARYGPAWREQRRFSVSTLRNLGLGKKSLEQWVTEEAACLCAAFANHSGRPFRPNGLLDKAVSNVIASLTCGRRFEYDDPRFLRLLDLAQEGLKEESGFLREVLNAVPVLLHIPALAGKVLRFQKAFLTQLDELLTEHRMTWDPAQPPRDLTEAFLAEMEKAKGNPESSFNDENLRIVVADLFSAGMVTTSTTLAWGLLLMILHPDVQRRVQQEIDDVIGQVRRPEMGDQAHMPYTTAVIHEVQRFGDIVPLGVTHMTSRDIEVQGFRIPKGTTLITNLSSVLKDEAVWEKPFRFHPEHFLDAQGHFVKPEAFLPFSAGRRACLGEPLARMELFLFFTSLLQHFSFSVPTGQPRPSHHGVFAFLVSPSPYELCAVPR

pIC50 (HPK1): 8.03
SMILES: COc1cccn2c(-c3cc4c(c5c3CCNC5=O)Nc3ccc(N5CCOCC5)cc3C4(C)C)cnc12 [compound 3, Cmpd. 3]

pIC50 (HPK1): 8.05
SMILES: COc1cccn2c(-c3cc4c(c5c3CNC5=O)Nc3ccc(N5CCOCC5)cc3C4(C)C)cnc12 [compound 4, Cmpd. 4]

EC50 (human primary T cells): 9.5 nM
solubility (physchem): 56.3 µM (≈ 28.1 µg/mL)
half-life (in vitro [3]): 37.7 h
efflux ratio (in vitro [4]): 2.72
half-life (in vitro [5]): 2.68 h
half-life (in vitro [6]): 3.93 h
half-life (in vitro [7]): 3.42 h
fraction unbound (in vitro [8]): 0.046
fraction unbound (in vitro [9]): 0.023
fraction unbound (in vitro [10]): 0.0386
fraction unbound (in vitro [11]): 0.0112
inhibition at 10 µM (CYP2C9): 24.5%
inhibition at 10 µM (CYP2D6): 20.7%
inhibition at 10 µM (CYP2C19): 53.6%
inhibition at 10 µM (CYP1A2): 9%
activity at 1 µM (PXR): 2%
SMILES: CO[C@H]1CCCn2c(-c3cc4c(c5c3CNC5=O)Nc3ccc(N5CCOCC5)cc3C4(C)C)cnc21 [compound 6, Cmpd. 6]
CC50 (in vitro [1]): 3290 nM
CC50 (in vitro [2]): 7800 nM
inhibition at 10 µM (hERG [12]): 74.5%
pIC50 (hERG [13]): 5.29
